From patent publication US20230329236A1, “HERBICIDAL PYRIMIDINE DERIVATIVES” (MoA Technology Limited, priority 2020, published 2023)

What was measured:
Conditions in all cases: 336 h, Table 3, post-emergence, 14±1 days post application
[1] = system: Lolium multiflorum (LOLMU); assay: Post-emergence glasshouse test, visual injury, LOLMU; assay type: in vivo
Procedure: (§1) Seeds of a variety of test species are grown in a sandy loam soil mixture, Lolium multiflorum (LOLMU), Amaranthus retroflexus (AMARE), Echinochloa crus-gaffi (ECHCG), Veronica persica (VERPE), Glycine max (GLXMA), Oryza sativa (ORYSA), Zea mays (ZEAMX), spring wheat (TRZAS), Ipomoea hederacea (IPOHE), Ipomoea purpurea (PHBPU), Stellaria media (STEME), Solanum nigrum (SOLNI), Digitaria sanguinalis (DIGSA), Setaria italica (SETIT), Alopecurus myosuroides (ALOMY) and Avena fatua (AVEFA).
(§2) After sowing, at growth stage BBCH 12-14 (post-emergence), the plants are sprayed with an aqueous spray solution derived from the formulation of the technical active ingredient in acetone/water (50:50) solution containing 0.5% Tween 20 (polyoxyethlyene sorbitan monolaureate, CAS RN 9005-64-5). The test compounds are applied at the required concentration of active ingredient in g/ha. The test plants are then grown in a glasshouse under controlled environmental conditions and watered regularly as required. After 14±1 days post application (for post-emergence test), the test is evaluated by assessing the percentage damage caused to the plants in comparison with the untreated plots. The biological activities for post-emergence testing are shown below (Table 3 and Table 4) as a % visual injury.

[2] = system: Echinochloa crus-gaffi (ECHCG); assay: Post-emergence glasshouse test, visual injury, ECHCG; assay type: in vivo, Echinochloa crus-galli
Procedure: as §1, §2

[3] = system: Veronica persica (VERPE); assay: Post-emergence glasshouse test, visual injury, VERPE; assay type: in vivo
Procedure: as §1, §2

[4] = system: Amaranthus retroflexus (AMARE); assay: Post-emergence glasshouse test, visual injury, AMARE; assay type: in vivo
Procedure: as §1, §2

SMILES | pest or weed control at 500 g/ha [1] [%] | pest or weed control at 500 g/ha [2] [%] | pest or weed control at 500 g/ha [3] [%] | pest or weed control at 500 g/ha [4] [%] | pest or weed control at 125 g/ha [1] [%] | pest or weed control at 125 g/ha [2] [%] | pest or weed control at 125 g/ha [3] [%] | pest or weed control at 125 g/ha [4] [%] | also measured
Cc1cc(-c2cnc(NCc3ccc(F)cc3)nc2C(C)(C)C)on1 [Compound 47] | 0 | 50 | 80 | 40 | – | – | – | – | –
CCN(CC)c1ncc(-c2cc(C)no2)c(C(C)C)n1 [Compound 10] | – | – | – | – | – | – | – | – | pest or weed control at 250 g/ha [1]: 0%; pest or weed control at 250 g/ha [2]: 30%; pest or weed control at 250 g/ha [3]: 0%; pest or weed control at 250 g/ha [4]: 0%
Cc1cc(-c2cnc(NC(C)C)nc2C(C)(C)C)on1 [Compound 73] | 40 | 70 | 0 | 70 | – | – | – | – | –
Cc1cc(-c2cnc(N3CCCC3)nc2-c2ccc(C)o2)on1 [Compound 58] | 20 | 10 | 0 | 0 | – | – | – | – | –
COc1cc(CNc2ncc(-c3cc(C)no3)c(C(C)C)n2)cc(OC)c1 [Compound 15] | – | – | – | – | – | – | – | – | pest or weed control at 1000 g/ha [1]: 0%; pest or weed control at 1000 g/ha [2]: 30%; pest or weed control at 1000 g/ha [3]: 100%; pest or weed control at 1000 g/ha [4]: 60%
Cc1cc(-c2cnc(NCc3ccc(F)cc3)nc2C)on1 [Compound 128] | – | – | – | – | 30 | 30 | 95 | 95 | –
Cc1cc(-c2cnc(N3CCNC(=O)C3)nc2-c2ccc(C)o2)on1 [Compound 37] | 0 | 0 | 0 | 50 | – | – | – | – | –
Cc1cc(-c2cnc(N3CCC(C(N)=O)CC3)nc2-c2ccc(C)o2)on1 [Compound 19] | – | – | – | – | – | – | – | – | pest or weed control at 1000 g/ha [1]: 0%; pest or weed control at 1000 g/ha [2]: 20%; pest or weed control at 1000 g/ha [3]: 0%; pest or weed control at 1000 g/ha [4]: 70%
Cc1cc(-c2cnc(N3CCCC3)nc2C(C)C)on1 [Compound 29] | 0 | 50 | 50 | 0 | – | – | – | – | –
Cc1cc(-c2cnc(NCc3cccc(F)c3)nc2C(F)(F)F)on1 [Compound 126] | – | – | – | – | 0 | 70 | 100 | 95 | –
Cc1cc(-c2cnc(NCC3CCCC3)nc2C(C)C)on1 [Compound 107] | – | – | – | – | 0 | 50 | 50 | 30 | –
Cc1cc(-c2cnc(NCc3ccc(C#N)cc3)nc2C(C)C)on1 [Compound 118] | – | – | – | – | 0 | 20 | 95 | 80 | –
Cc1cc(-c2cnc(N)nc2-c2ccc(C)o2)on1 [Compound 2, 5-(3-methyl-1,2-oxazol-5-yl)-4-(5-methylfuran-2-yl)pyrimidin-2-amine] | 40 | 10 | 0 | 30 | – | – | – | – | –
Cc1cc(-c2cnc(NCc3ccccc3F)nc2C(C)C)on1 [Compound 55] | 40 | 70 | 99 | 100 | – | – | – | – | –
Cc1cc(-c2cnc(NC3CCCC3)nc2C2CC2)on1 [Compound 13, N-cyclopentyl-4-cyclopropyl-5-(3-methyl-1,2-oxazol-5-yl)pyrimidin-2-amine] | – | – | – | – | 40 | 80 | 70 | 80 | pest or weed control at 250 g/ha [1]: 80%; pest or weed control at 250 g/ha [2]: 100%; pest or weed control at 250 g/ha [3]: 100%; pest or weed control at 250 g/ha [4]: 100%
Cc1cc(-c2cnc(NC3CCOCC3)nc2C(C)C)on1 [Compound 6] | – | – | – | – | 50 | 90 | 90 | 60 | pest or weed control at 250 g/ha [1]: 20%; pest or weed control at 250 g/ha [2]: 98%; pest or weed control at 250 g/ha [3]: 100%; pest or weed control at 250 g/ha [4]: 100%
Cc1cc(-c2cnc(N3CCOCC3)nc2-c2ccc(C)o2)on1 [Compound 72] | 0 | 30 | 0 | 90 | – | – | – | – | –
Cc1cc(-c2cnc(NCc3cccnc3)nc2C(C)(C)C)on1 [Compound 75] | 70 | 40 | 90 | 98 | – | – | – | – | –

SMILES | pest or weed control at 500 g/ha [1] [%] | pest or weed control at 500 g/ha [2] [%] | pest or weed control at 500 g/ha [3] [%] | pest or weed control at 500 g/ha [4] [%] | pest or weed control at 125 g/ha [1] [%] | pest or weed control at 125 g/ha [2] [%] | pest or weed control at 125 g/ha [3] [%] | pest or weed control at 125 g/ha [4] [%] | also measured
CC(=O)N1CCN(c2ncc(-c3cc(C)no3)c(-c3ccncc3)n2)CC1 [Compound 59] | 50 | 0 | 90 | 0 | – | – | – | – | –
Cc1cc(-c2cnc(NC3CCCCC3)nc2C(F)(F)F)on1 [Compound 125] | – | – | – | – | 20 | 50 | 0 | 70 | –
Cc1cc(-c2cnc(N3CCC(O)C(C)C3)nc2-c2ccc(C)o2)on1 (stereo not drawn) [Compound 36] | 0 | 30 | 0 | 30 | – | – | – | – | –
Cc1cc(-c2cnc(N3CCC(C(N)=O)CC3)nc2-c2ccc(C)s2)on1 [Compound 88] | – | – | – | – | 0 | 20 | 0 | 20 | –
Cc1ccc(CNc2ncc(-c3cc(C)no3)c(C(C)C)n2)cc1 [Compound 100] | – | – | – | – | – | – | – | – | pest or weed control at 62 g/ha [1]: 0%; pest or weed control at 62 g/ha [2]: 80%; pest or weed control at 62 g/ha [3]: 95%; pest or weed control at 62 g/ha [4]: 80%
Cc1cc(-c2cnc(N3CCCC(O)C3)nc2C2CC2)on1 (stereo not drawn) [Compound 57] | 0 | 50 | 0 | 70 | – | – | – | – | –
Cc1cc(-c2cnc(NCc3cccc(C#N)c3)nc2C(C)C)on1 [Compound 97] | – | – | – | – | – | – | – | – | pest or weed control at 62 g/ha [1]: 20%; pest or weed control at 62 g/ha [2]: 70%; pest or weed control at 62 g/ha [3]: 70%; pest or weed control at 62 g/ha [4]: 50%
CCN(C)c1ncc(-c2cc(C)no2)c(C(C)C)n1 [Compound 1, N-ethyl-N-methyl-5-(3-methyl-1,2-oxazol-5-yl)-4-(propan-2-yl)pyrimidin-2-amine] | 0 | 50 | 90 | 70 | 0 | 0 | 0 | 0 | –
Cc1cc(-c2cnc(NC3CCCC3)nc2C(F)F)on1 [Compound 119] | – | – | – | – | 0 | 0 | 0 | 50 | –
CC(C)c1nc(NC2CCCC2)ncc1-c1cncs1 [Compound 124] | – | – | – | – | – | – | – | – | pest or weed control at 62 g/ha [1]: 0%; pest or weed control at 62 g/ha [2]: 0%; pest or weed control at 62 g/ha [3]: 0%; pest or weed control at 62 g/ha [4]: 10%
Cc1cc(-c2cnc(NCc3ccc(F)cc3)nc2C2CCC2)on1 [Compound 105] | – | – | – | – | 0 | 0 | 50 | 30 | –
Cc1cc(-c2cnc(N3CCC(C(N)=O)CC3)nc2C(C)(C)C)on1 [Compound 26] | 0 | 30 | 60 | 0 | – | – | – | – | –
CCNc1ncc(-c2cc(C)no2)c(C(C)C)n1 [Compound 11] | – | – | – | – | – | – | – | – | pest or weed control at 250 g/ha [1]: 0%; pest or weed control at 250 g/ha [2]: 80%; pest or weed control at 250 g/ha [3]: 70%; pest or weed control at 250 g/ha [4]: 100%
COCCNc1ncc(-c2cc(C)no2)c(-c2ccncc2)n1 [Compound 66] | 60 | 20 | 70 | 70 | – | – | – | – | –
Cc1cc(-c2cnc(N3CCC(C(N)=O)CC3)nc2C2CC2)on1 [Compound 64] | 30 | 60 | 0 | 60 | – | – | – | – | –
Cc1cc(-c2cnc(NCCc3c(C)noc3C)nc2C2CC2)on1 [Compound 46] | 60 | 70 | 50 | 90 | – | – | – | – | –
Cc1cc(-c2cnc(NC3CC3)nc2C2CC2)on1 [Compound 84] | – | – | – | – | 50 | 90 | 60 | 60 | pest or weed control at 250 g/ha [1]: 70%; pest or weed control at 250 g/ha [2]: 100%; pest or weed control at 250 g/ha [3]: 100%; pest or weed control at 250 g/ha [4]: 80%
